#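 Exposure lasted 48 hours, with cells grown in 96-well plates and compounds tested at five concentrations. At the TGI there is no net growth.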
# Columns and labels:
# Assay in all cases: NCI-60 cell line screen, 48 h
# HT29 colon = system: HT29 colon
# LOX IMVI melanoma = system: LOX IMVI melanoma
# EKVX NSCLC = system: EKVX NSCLC
# DMS 273 small cell lung = system: DMS 273 small cell lung
# KM20L2 colon = system: KM20L2 colon
# OVCAR-3 ovarian = system: OVCAR-3 ovarian
# K-562 leukemia = system: K-562 leukemia
# SNB-75 CNS = system: SNB-75 CNS
# UACC-257 melanoma = system: UACC-257 melanoma
# HCT-116 colon = system: HCT-116 colon
# SF-539 CNS = system: SF-539 CNS
# TK-10 renal = system: TK-10 renal
# DLD-1 colon = system: DLD-1 colon
# NCI-H226 lung = system: NCI-H226 lung
# HOP-92 NSCLC = system: HOP-92 NSCLC
# MALME-3M melanoma = system: MALME-3M melanoma
# M14 melanoma = system: M14 melanoma
# IGROV1 ovarian = system: IGROV1 ovarian
# SK-MEL-5 melanoma = system: SK-MEL-5 melanoma
# DMS 114 small cell lung = system: DMS 114 small cell lung
# SR leukemia = system: SR leukemia
# 786-0 renal = system: 786-0 renal
# HOP-18 NSCLC = system: HOP-18 NSCLC
# HCT-15 colon = system: HCT-15 colon
# SK-OV-3 ovarian = system: SK-OV-3 ovarian
# NCI-H522 lung = system: NCI-H522 lung
# M19-MEL melanoma = system: M19-MEL melanoma
# A498 renal = system: A498 renal
# NCI-H460 lung = system: NCI-H460 lung
# RXF-631 renal = system: RXF-631 renal
# CCRF-CEM leukemia = system: CCRF-CEM leukemia
# CAKI-1 renal = system: CAKI-1 renal
# OVCAR-5 ovarian = system: OVCAR-5 ovarian
# SF-295 CNS = system: SF-295 CNS
# RXF 393 renal = system: RXF 393 renal
# HCC-2998 colon = system: HCC-2998 colon
# OVCAR-4 ovarian = system: OVCAR-4 ovarian
# A549 NSCLC = system: A549 NSCLC
# UO-31 renal = system: UO-31 renal
# KM12 colon = system: KM12 colon
# SF-268 CNS = system: SF-268 CNS
# ACHN renal = system: ACHN renal
# UACC-62 melanoma = system: UACC-62 melanoma
# SW-620 colon = system: SW-620 colon
# NCI-H23 lung = system: NCI-H23 lung
# MOLT-4 leukemia = system: MOLT-4 leukemia
# COLO 205 colon = system: COLO 205 colon
# HL-60(TB) leukemia = system: HL-60(TB) leukemia
# SNB-19 CNS = system: SNB-19 CNS
# SK-MEL-28 melanoma = system: SK-MEL-28 melanoma
# SK-MEL-2 melanoma = system: SK-MEL-2 melanoma
# LXFL 529 NSCLC = system: LXFL 529 NSCLC
# U251 CNS = system: U251 CNS
# RPMI-8226 leukemia = system: RPMI-8226 leukemia
# OVCAR-8 ovarian = system: OVCAR-8 ovarian
# SNB-78 CNS = system: SNB-78 CNS
# HOP-62 NSCLC = system: HOP-62 NSCLC
# SN12C renal = system: SN12C renal
# XF 498 CNS = system: XF 498 CNS
structure (smiles),measurement,setting,value
CCOC(=O)c1c2ccc(/C=C/c3ccccc3)ccc-2c(C(=O)OCC)c1N,TGI,HT29 colon,> 100 µM
same,TGI,LOX IMVI melanoma,> 100 µM
same,TGI,EKVX NSCLC,> 100 µM
same,TGI,DMS 273 small cell lung,> 100 µM
same,TGI,KM20L2 colon,> 100 µM
same,TGI,OVCAR-3 ovarian,> 100 µM
same,TGI,K-562 leukemia,> 100 µM
same,TGI,SNB-75 CNS,99.4 µM
same,TGI,UACC-257 melanoma,> 100 µM
same,TGI,HCT-116 colon,> 100 µM
same,TGI,SF-539 CNS,> 100 µM
same,TGI,TK-10 renal,> 100 µM
same,TGI,DLD-1 colon,> 100 µM
same,TGI,NCI-H226 lung,> 100 µM
same,TGI,HOP-92 NSCLC,> 100 µM
same,TGI,MALME-3M melanoma,> 100 µM
same,TGI,M14 melanoma,> 100 µM
same,TGI,IGROV1 ovarian,> 100 µM
same,TGI,SK-MEL-5 melanoma,> 100 µM
same,TGI,DMS 114 small cell lung,> 100 µM
same,TGI,SR leukemia,> 100 µM
same,TGI,786-0 renal,> 100 µM
same,TGI,HOP-18 NSCLC,> 100 µM
same,TGI,HCT-15 colon,> 100 µM
same,TGI,SK-OV-3 ovarian,> 100 µM
same,TGI,NCI-H522 lung,> 100 µM
same,TGI,M19-MEL melanoma,> 100 µM
same,TGI,A498 renal,99.8 µM
same,TGI,NCI-H460 lung,> 100 µM
same,TGI,RXF-631 renal,> 100 µM
same,TGI,CCRF-CEM leukemia,> 100 µM
same,TGI,CAKI-1 renal,> 100 µM
same,TGI,OVCAR-5 ovarian,> 100 µM
same,TGI,SF-295 CNS,> 100 µM
same,TGI,RXF 393 renal,> 100 µM
same,TGI,HCC-2998 colon,> 100 µM
same,TGI,OVCAR-4 ovarian,> 100 µM
same,TGI,A549 NSCLC,> 100 µM
same,TGI,UO-31 renal,> 100 µM
same,TGI,KM12 colon,> 100 µM
same,TGI,SF-268 CNS,> 100 µM
same,TGI,ACHN renal,> 100 µM
same,TGI,UACC-62 melanoma,> 100 µM
same,TGI,SW-620 colon,> 100 µM
same,TGI,NCI-H23 lung,> 100 µM
same,TGI,MOLT-4 leukemia,> 100 µM
same,TGI,COLO 205 colon,> 100 µM
same,TGI,HL-60(TB) leukemia,> 100 µM
same,TGI,SNB-19 CNS,> 100 µM
same,TGI,SK-MEL-28 melanoma,> 100 µM
same,TGI,SK-MEL-2 melanoma,> 100 µM
same,TGI,LXFL 529 NSCLC,> 100 µM
COc1cc([N+](=O)[O-])ccc1NC(=O)c1cccc([N+](=O)[O-])c1O,TGI,HT29 colon,> 100 µM
same,TGI,LOX IMVI melanoma,> 100 µM
same,TGI,EKVX NSCLC,78.8 µM
same,TGI,KM20L2 colon,> 100 µM
same,TGI,OVCAR-3 ovarian,> 100 µM
same,TGI,K-562 leukemia,> 100 µM
same,TGI,SNB-75 CNS,70.5 µM
same,TGI,UACC-257 melanoma,63.7 µM
same,TGI,HCT-116 colon,> 100 µM
same,TGI,SF-539 CNS,75.2 µM
same,TGI,DLD-1 colon,> 100 µM
same,TGI,NCI-H226 lung,> 100 µM
same,TGI,MALME-3M melanoma,63.5 µM
same,TGI,M14 melanoma,> 100 µM
same,TGI,IGROV1 ovarian,> 100 µM
same,TGI,SK-MEL-5 melanoma,31 µM
same,TGI,U251 CNS,> 100 µM
same,TGI,DMS 114 small cell lung,> 100 µM
same,TGI,SR leukemia,> 100 µM
same,TGI,HOP-18 NSCLC,61 µM
same,TGI,HCT-15 colon,> 100 µM
same,TGI,SK-OV-3 ovarian,77.9 µM
same,TGI,NCI-H522 lung,39 µM
same,TGI,M19-MEL melanoma,> 100 µM
same,TGI,A498 renal,51.7 µM
same,TGI,RPMI-8226 leukemia,61.9 µM
same,TGI,NCI-H460 lung,> 100 µM
same,TGI,RXF-631 renal,> 100 µM
same,TGI,CCRF-CEM leukemia,> 100 µM
same,TGI,OVCAR-8 ovarian,> 100 µM
same,TGI,CAKI-1 renal,48.8 µM
same,TGI,SNB-78 CNS,> 100 µM
same,TGI,OVCAR-5 ovarian,> 100 µM
same,TGI,SF-295 CNS,81.6 µM
same,TGI,HOP-62 NSCLC,> 100 µM
same,TGI,HCC-2998 colon,> 100 µM
same,TGI,OVCAR-4 ovarian,> 100 µM
same,TGI,A549 NSCLC,66.6 µM
same,TGI,UO-31 renal,56.5 µM
same,TGI,KM12 colon,> 100 µM
same,TGI,SF-268 CNS,> 100 µM
same,TGI,ACHN renal,62 µM
same,TGI,UACC-62 melanoma,> 100 µM
same,TGI,SW-620 colon,> 100 µM
same,TGI,NCI-H23 lung,96.9 µM
same,TGI,MOLT-4 leukemia,> 100 µM
same,TGI,COLO 205 colon,40.3 µM
same,TGI,HL-60(TB) leukemia,55.4 µM
same,TGI,SNB-19 CNS,> 100 µM
same,TGI,SK-MEL-28 melanoma,> 100 µM
same,TGI,SN12C renal,71.8 µM
same,TGI,SK-MEL-2 melanoma,68 µM
same,TGI,LXFL 529 NSCLC,> 100 µM
ClCCCCOC1CCCCO1 (configuration not stated),TGI,HT29 colon,> 100 µM
same,TGI,EKVX NSCLC,> 100 µM
same,TGI,DMS 273 small cell lung,> 100 µM
same,TGI,KM20L2 colon,> 100 µM
same,TGI,OVCAR-3 ovarian,> 100 µM
same,TGI,XF 498 CNS,> 100 µM
same,TGI,SNB-75 CNS,> 100 µM
same,TGI,UACC-257 melanoma,> 100 µM
same,TGI,HCT-116 colon,> 100 µM
same,TGI,SF-539 CNS,> 100 µM
same,TGI,TK-10 renal,> 100 µM
same,TGI,DLD-1 colon,> 100 µM
same,TGI,NCI-H226 lung,> 100 µM
same,TGI,HOP-92 NSCLC,> 100 µM
same,TGI,MALME-3M melanoma,> 100 µM
same,TGI,M14 melanoma,> 100 µM
same,TGI,IGROV1 ovarian,> 100 µM
same,TGI,SK-MEL-5 melanoma,> 100 µM
same,TGI,U251 CNS,> 100 µM
same,TGI,DMS 114 small cell lung,> 100 µM
same,TGI,786-0 renal,> 100 µM
same,TGI,HOP-18 NSCLC,> 100 µM
same,TGI,HCT-15 colon,> 100 µM
same,TGI,SK-OV-3 ovarian,> 100 µM
same,TGI,NCI-H522 lung,> 100 µM
same,TGI,M19-MEL melanoma,> 100 µM
same,TGI,A498 renal,> 100 µM
same,TGI,NCI-H460 lung,> 100 µM
same,TGI,OVCAR-8 ovarian,> 100 µM
same,TGI,CAKI-1 renal,> 100 µM
same,TGI,SNB-78 CNS,> 100 µM
same,TGI,OVCAR-5 ovarian,> 100 µM
same,TGI,SF-295 CNS,> 100 µM
same,TGI,RXF 393 renal,> 100 µM
same,TGI,HOP-62 NSCLC,> 100 µM
same,TGI,HCC-2998 colon,> 100 µM
same,TGI,OVCAR-4 ovarian,> 100 µM
same,TGI,A549 NSCLC,> 100 µM
same,TGI,UO-31 renal,> 100 µM
same,TGI,KM12 colon,> 100 µM
same,TGI,SF-268 CNS,> 100 µM
same,TGI,ACHN renal,> 100 µM
same,TGI,UACC-62 melanoma,> 100 µM
same,TGI,SW-620 colon,> 100 µM
same,TGI,NCI-H23 lung,> 100 µM
same,TGI,MOLT-4 leukemia,> 100 µM
same,TGI,COLO 205 colon,> 100 µM
same,TGI,HL-60(TB) leukemia,> 100 µM
same,TGI,SNB-19 CNS,> 100 µM
same,TGI,SK-MEL-28 melanoma,> 100 µM
same,TGI,SN12C renal,> 100 µM
same,TGI,SK-MEL-2 melanoma,> 100 µM
same,TGI,LXFL 529 NSCLC,> 100 µM
COC(=O)C1(O)c2ccccc2N=C2C1CCN2C (configuration not stated),TGI,HT29 colon,> 100 µM
same,TGI,LOX IMVI melanoma,> 100 µM
same,TGI,EKVX NSCLC,> 100 µM
same,TGI,KM20L2 colon,> 100 µM
same,TGI,K-562 leukemia,> 100 µM
same,TGI,XF 498 CNS,> 100 µM
same,TGI,SNB-75 CNS,87.8 µM
same,TGI,UACC-257 melanoma,> 100 µM
same,TGI,HCT-116 colon,> 100 µM
same,TGI,SF-539 CNS,> 100 µM
same,TGI,TK-10 renal,> 100 µM
same,TGI,DLD-1 colon,> 100 µM
same,TGI,HOP-92 NSCLC,> 100 µM
same,TGI,MALME-3M melanoma,> 100 µM
same,TGI,M14 melanoma,> 100 µM
same,TGI,IGROV1 ovarian,> 100 µM
same,TGI,SK-MEL-5 melanoma,> 100 µM
same,TGI,U251 CNS,> 100 µM
same,TGI,DMS 114 small cell lung,> 100 µM
same,TGI,SR leukemia,> 100 µM
same,TGI,786-0 renal,> 100 µM
same,TGI,HOP-18 NSCLC,> 100 µM
same,TGI,HCT-15 colon,> 100 µM
same,TGI,SK-OV-3 ovarian,> 100 µM
same,TGI,NCI-H522 lung,> 100 µM
same,TGI,A498 renal,> 100 µM
same,TGI,RPMI-8226 leukemia,> 100 µM
same,TGI,NCI-H460 lung,> 100 µM
same,TGI,CCRF-CEM leukemia,> 100 µM
same,TGI,OVCAR-8 ovarian,> 100 µM
same,TGI,CAKI-1 renal,> 100 µM
same,TGI,SNB-78 CNS,> 100 µM
same,TGI,OVCAR-5 ovarian,> 100 µM
same,TGI,SF-295 CNS,> 100 µM
same,TGI,RXF 393 renal,> 100 µM
same,TGI,HOP-62 NSCLC,> 100 µM
same,TGI,HCC-2998 colon,> 100 µM
same,TGI,OVCAR-4 ovarian,> 100 µM
same,TGI,A549 NSCLC,> 100 µM
same,TGI,UO-31 renal,> 100 µM
same,TGI,KM12 colon,> 100 µM
same,TGI,SF-268 CNS,> 100 µM
same,TGI,ACHN renal,> 100 µM
same,TGI,UACC-62 melanoma,> 100 µM
same,TGI,SW-620 colon,> 100 µM
same,TGI,NCI-H23 lung,> 100 µM
same,TGI,MOLT-4 leukemia,> 100 µM
same,TGI,COLO 205 colon,> 100 µM
same,TGI,HL-60(TB) leukemia,> 100 µM
same,TGI,SNB-19 CNS,> 100 µM
same,TGI,SK-MEL-28 melanoma,> 100 µM
same,TGI,SN12C renal,> 100 µM
same,TGI,SK-MEL-2 melanoma,> 100 µM
same,TGI,LXFL 529 NSCLC,> 100 µM

# Source: PubChem BioAssay (NCI)
